Consider two compounds from article PMC9936538, “Structure–Activity Relationship of N-Ethyl-Hexedrone Analogues: Role of the α-Carbon Side-Chain Length in the Mechanism of Action, Cytotoxicity, and Behavioral Effects in Mice” (ACS Chemical Neuroscience, 2023).

Each structure is given as a SMILES string.

In data set [1] the test system is Swiss CD-1 mice. Details: method as in PMID 33155384. As to conditions: 10 and 25 mg/kg injections; cited from earlier work.
Data set [2] relates to Swiss CD-1 mice. Briefly: Open-field (OF) test, center versus periphery (anxiety-like behavior). As to conditions: 10 mg/kg i.p. Type of data set: in vivo. The protocol: Male Swiss CD-1 mice (Janvier, Le Genest, France) weighing 30–35 g (6–8 weeks old), housed in temperature-controlled conditions (22 ± 1 °C) under a 12 h light/dark cycle and with free access to food and drinking water (standard laboratory diet, Panlab SL, Barcelona, Spain), were randomly assigned to an experimental group. Efforts were made to minimize animal use and suffering.
The anxiety-like effects of the test compounds were assessed through an OF test as described.[64] Animals were placed individually in the center of an open-field arena (25 cm length × 25 cm width × 40 cm height), and the time spent, in seconds, in the center (8 × 8 cm) or the periphery of the arena was monitored for 60 min (Smart 3.0 Panlab, Barcelona, Spain).

For data set [3], the system named is NGF-differentiated PC12 cells. Briefly: Cytotoxicity in NGF-differentiated PC12 cells, WST-8 cell viability assay. Type of data set: cell-based. As to conditions: WST-8, 0.01–8.00 mM, 24 h. The protocol:
Pheochromocytoma cells (PC12) cells were cultured in collagen-coated dishes in DMEM supplemented with heat-inactivated 5% FBS, 10% horse serum, 10 mM HEPES, 2 mM glutamine, 25 UI/mL penicillin, and 25 μg/mL streptomycin (maintenance medium) and grown at 37 °C in a humidified 5% CO2 atmosphere. Cell differentiation was performed as described[54] with minor modifications. In brief, cells were seeded (250.000 cells/well) onto 96-well plates in the maintenance medium, and after 24 h, the medium was changed to a differentiation medium containing 50 ng/mL NGF. After 24 h, neurite outgrowth was already apparent.
Treatments with different concentrations of the drug in DMEM were performed 48 h after cell differentiation. 10 μL of the tested drug was added per well, in triplicate, and cells were incubated for 24 h at 37 °C in a humidified 5% CO2 atmosphere. Thereafter, the medium was removed and immediately replaced with a maintenance medium. 10 μL of the CCK-8 Cell Counting Kit, based on 2-(2-methoxy-4-nitrophenyl)-3-(4-nitrophenyl)-5-(2,4-disulfophenyl)-2H-tetrazolium, monosodium salt (WST-8), was added per well and was incubated for 2 h at 37 °C in a humidified 5% CO2 atmosphere. This method has been defined as a good alternative to the 3-(4,5-dimethylthiazol-2-yl)-2,5-diphenyltetrazoliumbromide (MTT) assay.[63] Optical density was measured at 450 nm, using a microplate reader.
For in vitro assays, data were normalized with 100% defined as the mean of the technical replicates in the control group and expressed as mean ± SEM. Nonlinear regression was used to fit the different competition curves. Data were plotted and best fitted to a sigmoidal dose–response curve from which an IC50 or LC50 value was obtained. Transporter ratios were calculated as (1/DAT IC50: 1/SERT IC50). Although IC50 values at inhibiting 5-HT uptake for some compounds tested are expressed as >100 μM for clarity purposes, DAT/SERT ratios were calculated with the original raw data. The Cheng–Prusoff equation was used to calculate Ki (affinity): Ki = EC50/(1 + [radioligand concentration/Kd]).[65] The sample size for behavioral experiments was determined using GPower software. One-way or two-way ANOVA, and subsequent Tukey’s posthoc test, conducted only if F was significant, was used to determine the effects of cathinones on cytotoxicity, HLA, OF, and CPP experiments. The α error probability was set at 0.05 (p < 0.05). The exact size group for the behavioral experiments is shown in the corresponding figure legends. All statistic calculations were carried out using GraphPad Prism (GraphPad software, San Diego, CA, USA).

As for `CCCCC(NCC)C(=O)c1ccccc1` (stereo not drawn) [NEH, N-ethyl-hexedrone], in data set [1], the locomotor activity result is “increase in locomotor activity”. Moreover, the “anxiogenic effect in OF test” value in data set [2] is recorded as “acute anxiogenic effects”.
Turning to `CCCCCC(NCC)C(=O)c1ccccc1` (stereo not drawn) [NEHP, N-ethyl-heptedrone], the “concentration at which cytotoxicity starts” value in data set [3] is 100 µM.
